Experimental data from patent US20250170248A1, “SMARCA DEGRADERS AND USES THEREOF” (Kymera Therapeutics, Inc., priority 2021, published 2025).

Legend:
Format in all cases: cell-based
SMARCA2 [1] = target: T1, SMARCA2 (Homo sapiens, UniProt P51531); assay: SMARCA2 Western blot degradation in MV4-11 cells; design: SMARCA2/SMARCA4 protein degradation selectivity in MV4-11 cells; endogenous in cells; host or cells: MV4-11; conditions: for Dmax: MV4-11, MV4-11 cells, read-out: SMARCA2 MSD MV411 degradation 24 h: average Dmax %; for Dmax / DC50 / SMARCA2 MSD MV411 degradation 24 h: average Dmax %: 24 h; for DC50 / Selectivity in MV411 / SMARCA2 MSD MV411 degradation 24 h: average Dmax %: MV4-11 cells; for DC50: read-out: SMARCA2 MSD MV411 degradation 24 h: Mean external-Abs DC50; for Selectivity in MV411: SMARCA2/4 selectivity
T1 sequence (P51531 whole entry): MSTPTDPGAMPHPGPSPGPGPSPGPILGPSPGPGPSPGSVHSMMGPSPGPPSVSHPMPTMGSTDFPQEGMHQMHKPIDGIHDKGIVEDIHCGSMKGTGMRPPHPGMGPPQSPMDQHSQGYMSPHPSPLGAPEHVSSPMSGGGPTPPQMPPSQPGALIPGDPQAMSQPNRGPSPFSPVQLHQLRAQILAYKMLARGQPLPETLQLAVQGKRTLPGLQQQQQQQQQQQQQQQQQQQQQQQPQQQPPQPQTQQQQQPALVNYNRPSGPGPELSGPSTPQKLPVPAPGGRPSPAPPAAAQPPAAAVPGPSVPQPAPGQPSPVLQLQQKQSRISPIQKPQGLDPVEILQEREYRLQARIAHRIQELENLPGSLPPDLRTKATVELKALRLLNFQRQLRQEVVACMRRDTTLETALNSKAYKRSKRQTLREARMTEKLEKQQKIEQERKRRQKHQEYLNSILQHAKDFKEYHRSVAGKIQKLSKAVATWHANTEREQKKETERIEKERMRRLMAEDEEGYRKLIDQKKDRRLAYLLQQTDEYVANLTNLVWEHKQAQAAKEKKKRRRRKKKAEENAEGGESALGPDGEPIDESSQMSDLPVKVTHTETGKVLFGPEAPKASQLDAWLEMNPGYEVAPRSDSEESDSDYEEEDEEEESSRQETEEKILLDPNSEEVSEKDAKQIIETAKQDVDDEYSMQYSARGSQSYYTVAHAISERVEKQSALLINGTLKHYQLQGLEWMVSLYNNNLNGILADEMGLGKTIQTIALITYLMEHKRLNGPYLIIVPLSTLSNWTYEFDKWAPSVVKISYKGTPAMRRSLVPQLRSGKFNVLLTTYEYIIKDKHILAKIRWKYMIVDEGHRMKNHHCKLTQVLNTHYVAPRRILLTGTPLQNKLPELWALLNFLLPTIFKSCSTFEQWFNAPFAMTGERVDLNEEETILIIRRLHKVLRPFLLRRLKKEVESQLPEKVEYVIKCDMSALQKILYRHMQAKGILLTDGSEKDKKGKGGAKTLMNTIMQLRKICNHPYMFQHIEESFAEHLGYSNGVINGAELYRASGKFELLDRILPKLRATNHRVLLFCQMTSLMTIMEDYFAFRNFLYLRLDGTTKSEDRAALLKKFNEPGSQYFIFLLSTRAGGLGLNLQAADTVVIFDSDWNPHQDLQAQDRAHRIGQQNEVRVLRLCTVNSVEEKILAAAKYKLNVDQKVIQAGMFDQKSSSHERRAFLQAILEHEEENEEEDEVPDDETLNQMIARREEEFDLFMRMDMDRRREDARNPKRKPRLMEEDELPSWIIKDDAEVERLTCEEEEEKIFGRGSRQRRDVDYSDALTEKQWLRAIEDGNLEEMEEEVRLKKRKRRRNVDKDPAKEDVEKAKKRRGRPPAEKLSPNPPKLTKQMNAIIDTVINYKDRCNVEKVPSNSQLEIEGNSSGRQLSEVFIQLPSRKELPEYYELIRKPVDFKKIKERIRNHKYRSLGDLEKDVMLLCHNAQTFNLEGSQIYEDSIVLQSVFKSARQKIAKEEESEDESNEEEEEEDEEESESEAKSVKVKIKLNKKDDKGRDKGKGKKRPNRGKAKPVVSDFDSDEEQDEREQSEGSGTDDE

SMARCA2 [2] = target: T1, SMARCA2; assay: MSD SMARCA2 degradation in A549 cell line; conditions: for Dmax: A549, A549 cells; for Dmax / DC50: 24 h; for DC50 / SMARCA2 MSD A549 degradation 24 h: Average Dmax %: A549 cells; for DC50: read-out: SMARCA2 MSD A549 degradation 24 h: Average external-Abs DC50
Procedure, shortened: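 SMARCA2 protein remaining after 24 h exposure of A549 cells (top concentration 1000 nM, 3-fold dilutions) was measured by MSD electrochemiluminescence immunoassay of cell lysates. Results are given as binned DC50 and maximal degradation (Dmax) codes.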

SMARCA4 = target: T2, SMARCA4 (Homo sapiens, UniProt P51532); assay: SMARCA4 Western blot degradation in MV4-11 cells; conditions: for Dmax: MV4-11, MV4-11 cells, read-out: SMARCA4 MSD MV411 degradation 24 h: average Dmax %; for Dmax / DC50: 24 h; for DC50 / SMARCA4 MSD MV411 degradation 24 h: average Dmax %: MV4-11 cells; for DC50: read-out: SMARCA4 MSD MV411 degradation 24 h: Mean external-Abs DC50
T2 construct: SMARCA2/SMARCA4 protein degradation selectivity in MV4-11 cells; endogenous in cells; host or cells: MV4-11
T2 sequence (P51532 whole entry): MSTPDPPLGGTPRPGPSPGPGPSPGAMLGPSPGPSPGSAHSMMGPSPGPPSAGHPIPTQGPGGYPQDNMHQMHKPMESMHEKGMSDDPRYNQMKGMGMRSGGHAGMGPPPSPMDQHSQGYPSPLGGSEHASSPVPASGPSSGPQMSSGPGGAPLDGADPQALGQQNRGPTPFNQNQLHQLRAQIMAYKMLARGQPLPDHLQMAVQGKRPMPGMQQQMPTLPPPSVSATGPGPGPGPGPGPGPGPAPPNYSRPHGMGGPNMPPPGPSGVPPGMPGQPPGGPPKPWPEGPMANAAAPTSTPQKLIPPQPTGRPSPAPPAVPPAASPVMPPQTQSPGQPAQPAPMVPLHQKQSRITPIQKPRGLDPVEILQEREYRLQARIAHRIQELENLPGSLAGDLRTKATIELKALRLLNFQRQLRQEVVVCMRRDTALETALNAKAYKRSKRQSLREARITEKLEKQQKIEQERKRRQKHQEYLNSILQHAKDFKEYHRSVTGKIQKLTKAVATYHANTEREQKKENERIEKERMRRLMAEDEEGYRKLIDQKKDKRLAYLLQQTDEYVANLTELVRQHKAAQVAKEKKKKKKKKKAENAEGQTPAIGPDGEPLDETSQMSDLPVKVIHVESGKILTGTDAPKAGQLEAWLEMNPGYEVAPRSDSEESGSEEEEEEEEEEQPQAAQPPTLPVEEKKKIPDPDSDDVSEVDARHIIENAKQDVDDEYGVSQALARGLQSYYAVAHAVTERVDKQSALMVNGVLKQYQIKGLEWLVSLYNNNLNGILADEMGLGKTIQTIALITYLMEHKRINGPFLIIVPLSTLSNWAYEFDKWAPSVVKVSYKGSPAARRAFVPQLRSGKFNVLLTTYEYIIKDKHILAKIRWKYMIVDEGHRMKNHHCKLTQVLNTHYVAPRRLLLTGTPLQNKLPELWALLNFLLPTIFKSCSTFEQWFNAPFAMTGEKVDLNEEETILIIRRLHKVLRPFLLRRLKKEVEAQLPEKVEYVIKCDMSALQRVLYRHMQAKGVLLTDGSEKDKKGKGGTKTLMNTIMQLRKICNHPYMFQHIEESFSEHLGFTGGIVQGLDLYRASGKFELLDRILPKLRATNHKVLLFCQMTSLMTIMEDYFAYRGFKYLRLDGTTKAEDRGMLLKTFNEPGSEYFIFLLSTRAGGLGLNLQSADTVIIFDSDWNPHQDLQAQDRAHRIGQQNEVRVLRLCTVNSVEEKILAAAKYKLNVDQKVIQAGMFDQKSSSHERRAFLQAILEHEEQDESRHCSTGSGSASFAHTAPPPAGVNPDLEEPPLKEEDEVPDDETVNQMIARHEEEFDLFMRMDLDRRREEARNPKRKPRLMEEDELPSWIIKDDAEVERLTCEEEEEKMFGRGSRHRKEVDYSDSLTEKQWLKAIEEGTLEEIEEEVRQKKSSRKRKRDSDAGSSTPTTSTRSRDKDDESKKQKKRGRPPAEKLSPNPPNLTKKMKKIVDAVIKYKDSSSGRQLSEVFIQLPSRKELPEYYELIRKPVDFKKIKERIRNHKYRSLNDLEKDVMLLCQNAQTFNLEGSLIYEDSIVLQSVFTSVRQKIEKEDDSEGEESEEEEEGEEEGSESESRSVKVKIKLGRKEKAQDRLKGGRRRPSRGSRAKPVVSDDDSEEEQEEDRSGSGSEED
Procedure, shortened: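 Protein levels quantified by LI-COR Western blot (beta-actin loading control) in RIPA lysates of MV4-11 cells after 24 h compound exposure. Degradation reported as DC50, Dmax % at 24 h and SMARCA2 vs SMARCA4 selectivity, each binned into letter codes.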

Row | Dmax (SMARCA2 [1]) | DC50 (SMARCA2 [1]) | Selectivity in MV411 (SMARCA2 [1]) | Dmax (SMARCA2 [2]) | DC50 (SMARCA2 [2]) | Dmax (SMARCA4) | DC50 (SMARCA4) | SMARCA2 MSD MV411 degradation 24 h: average Dmax % (SMARCA2 [1]) | SMARCA2 MSD A549 degradation 24 h: Average Dmax % (SMARCA2 [2]) | SMARCA4 MSD MV411 degradation 24 h: average Dmax % (SMARCA4) | SMILES
1 | 70 to 90% | 1 to 10 nM | C (C (10-100 fold)) | > 90% | 50 to 100 nM | 50 to 70% | > 100 nM |  |  |  | C#Cc1ccc(CNC(=O)[C@@H]2C[C@@H](O)CN2C(=O)[C@@H](NC(=O)[C@H]2CCC3(CC2)C[C@H](N2CCC(N4CC5(CC(N6CCN7c8cc(-c9ccccc9O)nnc8NC[C@H]7C6)C5)C4)CC2)C3)C(C)(C)C)cc1 (single isomer, unassigned) [I-223]
2 |  | 1 to 10 nM | B (B (>100-500 fold)) |  | > 100 nM |  | > 100 nM | B (B (>70-90% degradation)) | A (A (>90% degradation)) | D (D (<50% degradation)) | C#Cc1ccc(C2(NC(=O)[C@@H]3C[C@@H](O)CN3C(=O)[C@@H](NC(=O)[C@H]3CC4(C3)C[C@H](N3CCC(N5CCC(N6CCN7c8cc(-c9ccccc9O)nnc8NC[C@H]7C6)CC5)CC3)C4)C(C)(C)C)CC2)cc1 (single isomer, unassigned) [I-225]
3 |  | 10 to 100 nM | B (B (>100-500 fold)) |  | > 100 nM |  | > 100 nM | B (B (>70-90% degradation)) | A (A (>90% degradation)) | D (D (<50% degradation)) | C#Cc1ccc([C@H](C)NC(=O)[C@@H]2C[C@@H](O)CN2C(=O)[C@@H](NC(=O)[C@H]2CC3(C2)C[C@H](N2CCC(N4CCC(N5CCN6c7cc(-c8ccccc8O)nnc7NC[C@H]6C5)CC4)CC2)C3)C(C)(C)C)cc1 (single isomer, unassigned) [I-226]
4 | 70 to 90% | 10 to 100 nM | B (B (>100-500 fold)) | > 90% | > 100 nM | 50 to 70% | > 100 nM |  |  |  | C#Cc1ccc(CNC(=O)[C@@H]2C[C@@H](O)CN2C(=O)[C@@H](NC(=O)[C@H]2CC3(C2)C[C@H](N2CCC(N4CCC(N5CCN6c7cc(-c8ccccc8O)nnc7NC[C@H]6C5)CC4)CC2)C3)C(C)(C)C)c(Cl)c1 (single isomer, unassigned) [I-229]
5 |  | 1 to 10 nM | B (B (>100-500 fold)) |  | 10 to 50 nM |  | > 100 nM | B (B (>70-90% degradation)) | A (A (>90% degradation)) | C (C (50-70% degradation)) | C#Cc1ccc(CNC(=O)[C@@H]2C[C@@H](O)CN2C(=O)[C@@H](NC(=O)[C@H]2CC3(C2)C[C@H](N2CCC(N4CCC(N5CCN6c7cc(-c8ccccc8O)nnc7NC[C@H]6C5)CC4)CC2)C3)C(C)(C)C)c(Cl)c1 (single isomer, unassigned) [I-230]
6 | > 90% | 1 to 10 nM | C (C (10-100 fold)) | > 90% | 50 to 100 nM | 50 to 70% | > 100 nM |  |  |  | C#Cc1ccc(CNC(=O)[C@@H]2C[C@@H](O)CN2C(=O)[C@@H](NC(=O)[C@H]2CC3(C2)C[C@H](N2CCC(N4CCC(N5CCN6c7cc(-c8ccccc8O)nnc7NC[C@H]6C5)CC4)CC2)C3)C(C)(C)C)c(OC)c1 (single isomer, unassigned) [I-231]
7 |  | 1 to 10 nM | C (C (10-100 fold)) |  | 10 to 50 nM |  | 10 to 100 nM | A (A (>90% degradation)) | A (A (>90% degradation)) | B (B (>70-90% degradation)) | C#Cc1ccc(CNC(=O)[C@@H]2C[C@@H](O)CN2C(=O)[C@@H](NC(=O)[C@H]2CC3(C2)C[C@H](N2CCC(N4CCC(N5CCN6c7cc(-c8ccccc8O)nnc7NC[C@H]6C5)CC4)CC2)C3)C(C)(C)C)c(OC)c1 (single isomer, unassigned) [I-232]
